In US10604526B2, “Chemokine receptor modulators and uses thereof” (RAPT THERAPEUTICS, INC., priority 2016, dated 2020):

Target: T1, hCCR4 (Homo sapiens, UniProt P51679)
T1 sequence (P51679 1-360): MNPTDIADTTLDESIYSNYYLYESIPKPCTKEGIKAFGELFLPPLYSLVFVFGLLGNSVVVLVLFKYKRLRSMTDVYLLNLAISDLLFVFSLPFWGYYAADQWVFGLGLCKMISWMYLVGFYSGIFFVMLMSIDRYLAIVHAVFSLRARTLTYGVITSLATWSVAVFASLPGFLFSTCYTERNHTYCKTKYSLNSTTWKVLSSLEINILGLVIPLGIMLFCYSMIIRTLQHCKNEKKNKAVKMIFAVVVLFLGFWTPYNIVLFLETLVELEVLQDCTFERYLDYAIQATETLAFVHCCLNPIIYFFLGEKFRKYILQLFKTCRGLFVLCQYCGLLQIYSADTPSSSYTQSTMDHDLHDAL
Experiment: Calcium flux assay
Type: cell-based
Conditions: Chem5-hCCR4 cells, CCL22 at EC80 of 1.5 nM, FLIPR Calcium 6 dye; read-out: Potency (IC50)
Method: Calcium Flux Assay. Compounds were evaluated in a calcium flux assay substantially performed as follows. Chem5-hCCR4 cells (EMD Millipore, Hayward, Calif.; HTS009C) were cultured under standard conditions and frozen in aliquots of 10×10^6 cells/mL. The day prior to compound testing, a vial was rapidly thawed and pipetted into 20 mL media (DMEM+10% FBS+1% Pen-Strep+1% L-glutamine). Cells were harvested by centrifugation and re-suspended in fresh culture medium. 25 μL of cell suspension was seeded into 384-well plates (Corning, Tewksbury, Mass.; CellBind with black wall/clear bottom). The plates were centrifuged at 300 g for 10 seconds and incubated overnight at 37° C. and 5% CO2. The day of compound testing, media was removed from the plates and 25 μL serum free media was added to each well. Plates were returned to the incubator for 2 h. 25 μL assay buffer (Hank's balanced salt solution+20 mM HEPES pH 7.4) containing FLIPR Calcium 6 dye (Molecular Devices, Sunnyvale, Calif.; # R8191) and probenecid (2.5 mM) was added to each well and incubated at 37° C. and 5% CO2 for 2 h. Compounds in DMSO were added to the plates using an HP D300e digital dispenser, and all wells were normalized to contain 0.25 μL (0.5%) DMSO. Plates were incubated for 1 hour at 37° C. and 5% CO2. CCL22 (Peprotech; Rockyhill, N.J.) was diluted in assay buffer containing 0.1% BSA to 7.5 nM (corresponding to 5×EC80 of 1.5 nM).
Assay plates and working solution of CCL22 were transferred to the FlexStation plate reader (Molecular Devices) at 37° C. for 5 min of equilibration. Fluorescence recordings at 485 excitation/525 emission were performed at 2.5 second intervals. At t=16 seconds, 12.5 μL of CCL22 solution was added to each well and reads continued for 30 seconds at 2.5 second intervals. The minimum fluorescence (Fmin) was calculated by averaging the reads prior to ligand addition and the change in fluorescence (ΔF) was calculated by subtracting the Fmin from the average of the reads following ligand addition. The response ΔF/Fmin was plotted as a function of the compound concentration and the IC50 values were determined by non-linear regression analysis using a 4-parameter fit in either PRISM software (GraphPad; La Jolla, Calif.) or Dotmatics Browser.

Question: Which IC50 does the source give for `C[C@H](c1ccc(Cl)cc1Cl)n1nc(C(F)(F)F)c2ncc(N3CC(C4CCCN(CCO)C4)C3)nc21` (mixture of isomers) [Example 42, 2-((R)-3-(1-(1-((R)-1-(2,4-Dichlorophenyl)ethyl)-3-(trifluoromethyl)-1H-pyrazolo[3,4-b]pyrazin-6-yl)azetidin-3-yl)piperidin-1-yl)ethan-1-ol and 2-((S)-3-(1-(1-((R)-1-(2,4-dichlorophenyl)ethyl)-3-(trifluoromethyl)-1H-pyrazolo[3,4-b]pyrazin-6-yl)azetidin-3-yl)piperidin-1-yl)ethan-1-ol] here?
Answer: 100 to 500 nM

Question: `CC(=O)NCCN1CCCC(C2CN(c3cnc4c(C(F)(F)F)nn([C@H](C)c5ccc(Cl)cc5Cl)c4n3)C2)C1` (mixture of isomers) [Example 45, N-(2-((R)-3-(1-(1-((R)-1-(2,4-Dichlorophenyl)ethyl)-3-(trifluoromethyl)-1H-pyrazolo[3,4-b]pyrazin-6-yl)azetidin-3-yl)piperidin-1-yl)ethyl)acetamide and N-(2-((S)-3-(1-(1-((R)-1-(2,4-dichlorophenyl)ethyl)-3-(trifluoromethyl)-1H-pyrazolo[3,4-b]pyrazin-6-yl)azetidin-3-yl)piperidin-1-yl)ethyl)acetamide] was tested. Which IC50 did it give?
Answer: 100 to 500 nM

Question: `C[C@H](c1ccc(Cl)cc1Cl)n1nc(C(F)(F)F)c2ncc(N3CC(C4CCCN(CCNS(C)(=O)=O)C4)C3)nc21` (mixture of isomers) [Example 46, N-(2-((R)-3-(1-(1-((R)-1-(2,4-Dichlorophenyl)ethyl)-3-(trifluoromethyl)-1H-pyrazolo[3,4-b]pyrazin-6-yl)azetidin-3-yl)piperidin-1-yl)ethyl)methanesulfonamide and N-(2-((S)-3-(1-(1-((R)-1-(2,4-dichlorophenyl)ethyl)-3-(trifluoromethyl)-1H-pyrazolo[3,4-b]pyrazin-6-yl)azetidin-3-yl)piperidin-1-yl)ethyl)methanesulfonamide] was tested. Which IC50 did it give?
Answer: 100 to 500 nM

Question: `CC(C)S(=O)(=O)NCCN1CCCC(C2CN(c3cnc4c(C(F)(F)F)nn([C@H](C)c5ccc(Cl)cc5Cl)c4n3)C2)C1` (mixture of isomers) [Example 47, N-(2-((R)-3-(1-(1-((R)-1-(2,4-Dichlorophenyl)ethyl)-3-(trifluoromethyl)-1H-pyrazolo[3,4-b]pyrazin-6-yl)azetidin-3-yl)piperidin-1-yl)ethyl)propane-2-sulfonamide and N-(2-((S)-3-(1-(1-((R)-1-(2,4-dichlorophenyl)ethyl)-3-(trifluoromethyl)-1H-pyrazolo[3,4-b]pyrazin-6-yl)azetidin-3-yl)piperidin-1-yl)ethyl)propane-2-sulfonamide] was tested. Which IC50 did it give?
Answer: < 100 nM

Question: Which IC50 does the source give for `CC(C)C(=O)NCCN1CCCC(C2CN(c3cnc4c(C(F)(F)F)nn([C@H](C)c5ccc(Cl)cc5Cl)c4n3)C2)C1` (mixture of isomers) [Example 48, N-(2-((R)-3-(1-(1-((R)-1-(2,4-Dichlorophenyl)ethyl)-3-(trifluoromethyl)-1H-pyrazolo[3,4-b]pyrazin-6-yl)azetidin-3-yl)piperidin-1-yl)ethyl)isobutyramide and N-(2-((S)-3-(1-(1-((R)-1-(2,4-dichlorophenyl)ethyl)-3-(trifluoromethyl)-1H-pyrazolo[3,4-b]pyrazin-6-yl)azetidin-3-yl)piperidin-1-yl)ethyl)isobutyramide] here?
Answer: < 100 nM

Question: With `COC(=O)NCCN1CCCC(C2CN(c3cnc4c(C(F)(F)F)nn([C@H](C)c5ccc(Cl)cc5Cl)c4n3)C2)C1` (mixture of isomers) [Example 49, Methyl (2-((R)-3-(1-(1-((R)-1-(2,4-dichlorophenyl)ethyl)-3-(trifluoromethyl)-1H-pyrazolo[3,4-b]pyrazin-6-yl)azetidin-3-yl)piperidin-1-yl)ethyl)carbamate and methyl (2-((S)-3-(1-(1-((R)-1-(2,4-dichlorophenyl)ethyl)-3-(trifluoromethyl)-1H-pyrazolo[3,4-b]pyrazin-6-yl)azetidin-3-yl)piperidin-1-yl)ethyl)carbamate] as the compound, how does the IC50 read?
Answer: < 100 nM

Question: How did the IC50 turn out when `C[C@H](c1ccc(Cl)cc1Cl)n1nc(C(F)(F)F)c2ncc(N3CC(C4CCCN(CCCS(C)(=O)=O)C4)C3)nc21` (mixture of isomers) [Example 50, 1-((R)-1-(2,4-Dichlorophenyl)ethyl)-6-(3-((R)-1-(3-(methylsulfonyl)propyl)piperidin-3-yl)azetidin-1-yl)-3-(trifluoromethyl)-1H-pyrazolo[3,4-b]pyrazine and 1-((R)-1-(2,4-dichlorophenyl)ethyl)-6-(3-((S)-1-(3-(methylsulfonyl)propyl)piperidin-3-yl)azetidin-1-yl)-3-(trifluoromethyl)-1H-pyrazolo[3,4-b]pyrazine] was run?
Answer: < 100 nM

Question: With `C[C@H](c1ccc(Cl)cc1Cl)n1nc(C#N)c2ncc(N3CC(C4CCCN(CCCC(C)(C)O)C4)C3)nc21` (mixture of isomers) [Example 56, 1-((R)-1-(2,4-dichlorophenyl)ethyl)-6-(3-((S)-1-(4-hydroxy-4-methylpentyl)piperidin-3-yl)azetidin-1-yl)-1H-pyrazolo[3,4-b]pyrazine-3-carbonitrile and 1-((R)-1-(2,4-dichlorophenyl)ethyl)-6-(3-((R)-1-(4-hydroxy-4-methylpentyl)piperidin-3-yl)azetidin-1-yl)-1H-pyrazolo[3,4-b]pyrazine-3-carbonitrile] as the compound, how does the IC50 read?
Answer: < 100 nM

Question: How did the IC50 turn out when `CNS(=O)(=O)CCN1CCCC(C2CN(c3cnc4c(C#N)nn([C@H](C)c5ccc(Cl)cc5Cl)c4n3)C2)C1` (mixture of isomers) [Example 57, 2-(S)-3-(1-(3-cyano-1-((R)-1-(2,4-dichlorophenyl)ethyl)-1H-pyrazolo[3,4-b]pyrazin-6-yl)azetidin-3-yl)piperidin-1-yl)-N-methylethane-1-sulfonamide and 2-((R)-3-(1-(3-cyano-1-((R)-1-(2,4-dichlorophenyl)ethyl)-1H-pyrazolo[3,4-b]pyrazin-6-yl)azetidin-3-yl)piperidin-1-yl)-N-methylethane-1-sulfonamide] was run?
Answer: < 100 nM

Question: For `C[C@H](c1ccc(Cl)cc1Cl)n1nc(C#N)c2ncc(N3CC(C4CCCN(CCS(=O)(=O)N5CCOCC5)C4)C3)nc21` (mixture of isomers) [Example 58, 1-((R)-1-(2,4-dichlorophenyl)ethyl)-6-(3-((S)-1-(2-(morpholinosulfonyl)ethyl)piperidin-3-yl)azetidin-1-yl)-1H-pyrazolo[3,4-b]pyrazine-3-carbonitrile and 1-((R)-1-(2,4-dichlorophenyl)ethyl)-6-(3-((R)-1-(2-(morpholinosulfonyl)ethyl)piperidin-3-yl)azetidin-1-yl)-1H-pyrazolo[3,4-b]pyrazine-3-carbonitrile], which IC50 is on record?
Answer: 100 to 500 nM

Question: Which IC50 does the source give for `C[C@H](c1ccc(Cl)cc1Cl)n1nc(C#N)c2ncc(N3CC(C4CCCN(Cc5cc[nH]n5)C4)C3)nc21` (mixture of isomers) [Example 59, 6-(3-((S)-1-((1H-pyrazol-3-yl)methyl)piperidin-3-yl)azetidin-1-yl)-1-((R)-1-(2,4-dichlorophenyl)ethyl)-1H-pyrazolo[3,4-b]pyrazine-3-carbonitrile and 6-(3-((R)-1-((1H-pyrazol-3-yl)methyl)piperidin-3-yl)azetidin-1-yl)-1-((R)-1-(2,4-dichlorophenyl)ethyl)-1H-pyrazolo[3,4-b]pyrazine-3-carbonitrile] here?
Answer: < 100 nM

Question: For `C[C@H](c1ccc(Cl)cc1Cl)n1nc(C#N)c2ncc(N3CC(C4CCCN(Cc5c[nH]cn5)C4)C3)nc21` (mixture of isomers) [Example 60, 6-(3-((S)-1-(1H-imidazol-4-yl)methyl)piperidin-3-yl)azetidin-1-yl)-1-((R)-1-(2,4-dichlorophenyl)ethyl)-1H-pyrazolo[3,4-b]pyrazine-3-carbonitrile and 6-(3-((R)-1-((1H-imidazol-4-yl)methyl)piperidin-3-yl)azetidin-1-yl)-1-((R)-1-(2,4-dichlorophenyl)ethyl)-1H-pyrazolo[3,4-b]pyrazine-3-carbonitrile], which IC50 is on record?
Answer: < 100 nM
